# Assay results: ChEMBL document CHEMBL1201862, “PubChem BioAssay data set” (2004)
# Structures can show the parent of a compound that is named as a salt. Activity calls are given as the source filed them.
# Assays:
# [1] = molecular target: Peroxisome proliferator-activated receptor gamma/Nuclear receptor corepressor 2 (Homo sapiens, UniProt P37231+Q9Y618); test: Counterscreen for NR2E3 inverse agonists: TR-FRET-based biochemical high throughput dose response assay to identify inverse agonists of the interaction between peroxisome proliferator-activated receptor gamma (PPARg) and nuclear receptor co-repressor 2 (NCOR2).; assay type: functional
# [2] = molecular target: Photoreceptor-specific nuclear receptor (Homo sapiens, UniProt Q9Y5X4); test: ligands suppressing NR2E3 nuclear receptor activity – biochemical, TR-FRET, dose response (AID 463256); assay type: functional
# Sequence of Photoreceptor-specific nuclear receptor (Q9Y5X4 whole entry): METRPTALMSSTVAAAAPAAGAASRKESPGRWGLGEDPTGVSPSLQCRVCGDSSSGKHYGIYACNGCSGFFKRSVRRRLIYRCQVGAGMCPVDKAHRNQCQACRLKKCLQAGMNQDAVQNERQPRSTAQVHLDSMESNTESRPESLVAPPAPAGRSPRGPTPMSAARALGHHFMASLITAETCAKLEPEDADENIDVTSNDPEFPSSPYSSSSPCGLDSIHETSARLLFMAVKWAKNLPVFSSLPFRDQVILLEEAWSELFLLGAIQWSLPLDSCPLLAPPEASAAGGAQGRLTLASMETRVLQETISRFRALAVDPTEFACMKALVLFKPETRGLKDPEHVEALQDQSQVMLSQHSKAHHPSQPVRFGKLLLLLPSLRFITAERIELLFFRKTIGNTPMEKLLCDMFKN
# cells [3] = details: HEK293
# [4] = toxicity to HepG2 liver cells – cell-based, plate reader, dry powder, set 6, cytotoxicity control, dose response (AID 743311); assay type: functional
# [5] = toxicity to A549 lung cells – cell-based, plate reader, dry powder, set 6, cytotoxicity control, dose response (AID 743312); assay type: functional
# [6] = IC50 of insulin release inhibition, rat insulinoma INS-1E line, 5 mM glucose, cell-based (AID 1117331); assay type: functional
# cells [7] = assay type: functional, cell-based; details: INS-1E
# [8] = molecular target: Aryl hydrocarbon receptor (Homo sapiens, UniProt P35869); test: Luminescence-based cell-based high throughput dose response assay for activators of the Aryl Hydrocarbon Receptor (AHR). [Related pubchem assays: 2796 (Primary screen (AHR activators in singlicate)), 2845 (Confirmation screen (AHR activators in triplicate)), 434939 (Counterscreen (PXR activators in triplicate)), 2804 (Summary (AHR activators))]; assay type: ADME
# Sequence of Aryl hydrocarbon receptor (P35869 whole entry): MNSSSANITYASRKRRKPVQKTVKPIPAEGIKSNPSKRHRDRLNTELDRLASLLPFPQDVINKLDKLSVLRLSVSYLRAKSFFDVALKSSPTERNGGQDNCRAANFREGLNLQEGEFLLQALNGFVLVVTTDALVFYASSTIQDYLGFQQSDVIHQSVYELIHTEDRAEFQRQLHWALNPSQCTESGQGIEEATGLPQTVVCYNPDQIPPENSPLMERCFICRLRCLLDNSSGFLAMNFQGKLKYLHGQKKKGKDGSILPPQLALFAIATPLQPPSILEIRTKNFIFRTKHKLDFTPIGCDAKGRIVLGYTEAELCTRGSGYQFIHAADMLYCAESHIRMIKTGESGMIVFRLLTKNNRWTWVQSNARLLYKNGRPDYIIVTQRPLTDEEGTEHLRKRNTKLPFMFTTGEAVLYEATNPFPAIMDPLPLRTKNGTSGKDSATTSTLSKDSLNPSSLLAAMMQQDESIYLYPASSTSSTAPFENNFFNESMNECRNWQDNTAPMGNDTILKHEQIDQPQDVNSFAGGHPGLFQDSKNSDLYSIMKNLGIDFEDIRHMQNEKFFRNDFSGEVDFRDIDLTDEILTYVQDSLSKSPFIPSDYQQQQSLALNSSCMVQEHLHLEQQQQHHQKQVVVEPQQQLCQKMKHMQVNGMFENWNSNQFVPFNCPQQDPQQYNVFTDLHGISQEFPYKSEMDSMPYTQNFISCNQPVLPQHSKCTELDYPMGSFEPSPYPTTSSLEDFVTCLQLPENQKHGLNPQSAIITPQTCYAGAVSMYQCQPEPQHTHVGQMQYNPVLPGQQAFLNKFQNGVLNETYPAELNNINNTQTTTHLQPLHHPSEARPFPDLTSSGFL
# Vero [9] = test: inhibition of WNV-induced cytopathic effect – cell-based, CPE readout (AID 1621); assay type: functional; details: Chlorocebus sabaeus
# Cytochrome P450 2C19 = Cytochrome P450 2C19 (Homo sapiens, UniProt P33261); test: qHTS Assay for Inhibitors and Substrates of Cytochrome P450 2C19. [Related pubchem assays: 410 ]; assay type: ADME; details: read-out: Potency
# Sequence of Cytochrome P450 2C19 (P33261 whole entry): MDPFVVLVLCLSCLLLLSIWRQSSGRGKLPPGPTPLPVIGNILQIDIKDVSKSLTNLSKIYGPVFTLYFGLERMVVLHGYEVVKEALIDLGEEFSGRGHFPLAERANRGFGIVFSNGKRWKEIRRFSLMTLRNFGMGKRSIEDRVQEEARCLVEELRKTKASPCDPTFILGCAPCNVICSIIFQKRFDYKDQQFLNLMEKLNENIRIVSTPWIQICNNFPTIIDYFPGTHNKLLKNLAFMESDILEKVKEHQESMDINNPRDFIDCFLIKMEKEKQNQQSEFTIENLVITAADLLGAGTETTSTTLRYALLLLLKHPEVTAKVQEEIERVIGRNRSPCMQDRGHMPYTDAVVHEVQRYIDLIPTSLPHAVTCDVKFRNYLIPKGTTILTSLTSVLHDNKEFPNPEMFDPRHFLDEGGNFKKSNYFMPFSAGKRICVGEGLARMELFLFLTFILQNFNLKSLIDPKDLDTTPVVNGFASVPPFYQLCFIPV
# [10] = Luminescence Cell-Based Dose Confirmation HTS to Identify Activators of 5'UTR Stem-Loop Driven Alpha-Synuclein mRNA Translation in H4 Neuroglioblastoma Cells. [Related pubchem assays: 1829 (Project Summary), 1814 (Primary HTS)]; assay type: functional
# [11] = Luminescence Cell-Based Dose Response HTS to Identify Activators of Luciferase Translation or Activity in H4 […] Cells. [Related pubchem assays: 1829 (Project Summary), 1814 (Primary HTS)]; assay type: functional
# [12] = molecular target: Heat shock protein HSP 90-alpha (Homo sapiens, UniProt P07900); test: Luminescence-based dose response biochemical high throughput screening assay for inhibitors of the Heat Shock Protein 90 (HSP90). [Related pubchem assays: 1831 (Summary AID.), 1846 (Confirmation screen.), 1789 (Primary screen.)]
# H4 = test: Luminescence Cell-Based Dose Response HTS to Identify Activators of 5'UTR Stem-Loop Driven Prion Protein mRNA Translation in H4 Neuroglioblastoma Cells. [Related pubchem assays: 1829 (Project Summary), 1814 (Primary HTS)]; assay type: functional; details: Homo sapiens
# [13] = Reduced DLD-1 viability, concentration-response, CellTiter-Glo luminescence (AID 1117352); assay type: functional
# [14] = cytotoxicity toward HT-29 cells – cell-based, CellTiter-Glo luminescence, IC50, dose response (AID 1117330); assay type: functional
# [15] = CellTiter-Glo luminescence survival assay, SW480 colon tumor line, concentration-response curve, half-maximal inhibitory concentration (AID 1117338); assay type: functional
# [16] = RKO cell viability reduction, dose response, CellTiter-Glo luminescence (AID 1117322); assay type: functional
# [17] = SNU-C1 cell viability reduction, dose response, CellTiter-Glo luminescence (AID 1117323); assay type: functional, cell-based
# [18] = HCT116 cell viability decrease, GSK3B pretreatment – CellTiter-Glo, IC50, dose response (AID 1117339); assay type: functional; details: HCT-116
# [19] = cytotoxicity toward Colo320 cells – cell-based, CellTiter-Glo luminescence, IC50, dose response (AID 1117334); assay type: functional; details: COLO 320
# [20] = molecular target: Mitogen-activated protein kinase 10 (Homo sapiens, UniProt P53779); test: Dose response biochemical screening assay for inhibitors of c-Jun N-Terminal Kinase 3 (JNK3). [Related pubchem assays: 746 ]
# Sequence of Mitogen-activated protein kinase 10 (P53779 whole entry): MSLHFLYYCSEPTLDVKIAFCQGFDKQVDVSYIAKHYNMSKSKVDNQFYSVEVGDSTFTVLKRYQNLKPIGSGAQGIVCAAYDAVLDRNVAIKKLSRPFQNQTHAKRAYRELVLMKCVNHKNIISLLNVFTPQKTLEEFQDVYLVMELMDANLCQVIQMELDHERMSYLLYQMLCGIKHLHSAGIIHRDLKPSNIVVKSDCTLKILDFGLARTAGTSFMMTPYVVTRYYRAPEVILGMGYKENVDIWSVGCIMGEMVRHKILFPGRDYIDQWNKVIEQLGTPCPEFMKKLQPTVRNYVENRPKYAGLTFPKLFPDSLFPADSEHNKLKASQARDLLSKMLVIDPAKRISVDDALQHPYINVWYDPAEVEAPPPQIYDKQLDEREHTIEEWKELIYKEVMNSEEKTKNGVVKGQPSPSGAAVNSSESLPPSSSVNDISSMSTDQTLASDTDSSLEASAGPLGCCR
# [21] = viability loss in HepG2 hepatoma cells – cell-based, ATP luminescence, dry powder, set 2, cytotoxicity control, dose response (AID 743129); assay type: functional
# [22] = viability loss in HEK293T cells – cell-based, ATP luminescence, dry powder, set 3, cytotoxicity control, dose response (AID 743131); assay type: functional; details: HEK293
# [23] = M. tuberculosis growth inhibition, HTS (AID 449762); assay type: functional
# [24] = molecular target: T1, Histone-lysine N-methyltransferase NSD2 (Homo sapiens, UniProt O96028); assay type: biochemical
# T1 sequence (O96028 whole entry): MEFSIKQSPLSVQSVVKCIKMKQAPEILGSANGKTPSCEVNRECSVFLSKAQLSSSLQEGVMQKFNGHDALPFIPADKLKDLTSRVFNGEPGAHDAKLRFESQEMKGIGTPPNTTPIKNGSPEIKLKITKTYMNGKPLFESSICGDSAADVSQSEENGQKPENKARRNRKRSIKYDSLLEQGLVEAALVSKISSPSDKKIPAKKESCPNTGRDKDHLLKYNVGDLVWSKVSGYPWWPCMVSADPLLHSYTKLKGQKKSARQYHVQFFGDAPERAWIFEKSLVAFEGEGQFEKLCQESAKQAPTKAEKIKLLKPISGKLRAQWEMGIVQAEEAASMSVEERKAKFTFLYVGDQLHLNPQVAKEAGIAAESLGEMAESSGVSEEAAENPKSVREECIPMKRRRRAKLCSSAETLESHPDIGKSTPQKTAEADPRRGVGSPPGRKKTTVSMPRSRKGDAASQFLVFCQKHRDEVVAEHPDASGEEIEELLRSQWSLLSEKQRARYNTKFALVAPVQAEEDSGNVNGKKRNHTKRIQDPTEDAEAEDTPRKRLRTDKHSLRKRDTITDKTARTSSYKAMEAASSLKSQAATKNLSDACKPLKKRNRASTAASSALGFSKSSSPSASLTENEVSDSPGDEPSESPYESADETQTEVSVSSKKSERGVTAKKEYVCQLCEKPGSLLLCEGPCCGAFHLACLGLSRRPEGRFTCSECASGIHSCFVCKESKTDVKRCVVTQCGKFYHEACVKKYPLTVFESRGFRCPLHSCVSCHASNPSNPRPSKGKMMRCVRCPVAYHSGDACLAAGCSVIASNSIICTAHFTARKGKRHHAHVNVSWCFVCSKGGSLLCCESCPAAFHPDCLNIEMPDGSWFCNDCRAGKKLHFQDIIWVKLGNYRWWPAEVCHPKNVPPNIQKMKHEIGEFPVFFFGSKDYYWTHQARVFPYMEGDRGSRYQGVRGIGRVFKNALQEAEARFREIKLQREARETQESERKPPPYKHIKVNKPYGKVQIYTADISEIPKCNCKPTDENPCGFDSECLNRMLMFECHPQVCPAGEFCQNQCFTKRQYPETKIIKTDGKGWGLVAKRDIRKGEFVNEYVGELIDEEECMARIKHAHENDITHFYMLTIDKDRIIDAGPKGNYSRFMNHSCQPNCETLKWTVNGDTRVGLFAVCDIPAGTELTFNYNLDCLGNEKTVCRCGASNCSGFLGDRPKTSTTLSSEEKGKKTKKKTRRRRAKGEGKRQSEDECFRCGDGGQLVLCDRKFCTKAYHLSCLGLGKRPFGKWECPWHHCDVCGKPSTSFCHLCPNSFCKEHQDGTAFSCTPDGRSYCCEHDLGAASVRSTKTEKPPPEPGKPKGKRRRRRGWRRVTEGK
# [25] = molecular target: Dual specificity tyrosine-phosphorylation-regulated kinase 1A (Rattus norvegicus, UniProt Q63470); assay type: biochemical, Homo sapiens
# [26] = molecular target: T2, Long-chain-fatty-acid--AMP ligase FadD28 (Mycobacterium tuberculosis, UniProt P9WQ59); test: Fluorescence polarization aasay to screen for inhibitors that compete for the binding of FadD28 to a bisubstrate Measured in Biochemical System Using Plate Reader - 2147-01_Inhibitor_Dose_CherryPick_Activity.; assay type: functional, Mycobacterium tuberculosis H37Rv
# T2 sequence (P9WQ59 whole entry): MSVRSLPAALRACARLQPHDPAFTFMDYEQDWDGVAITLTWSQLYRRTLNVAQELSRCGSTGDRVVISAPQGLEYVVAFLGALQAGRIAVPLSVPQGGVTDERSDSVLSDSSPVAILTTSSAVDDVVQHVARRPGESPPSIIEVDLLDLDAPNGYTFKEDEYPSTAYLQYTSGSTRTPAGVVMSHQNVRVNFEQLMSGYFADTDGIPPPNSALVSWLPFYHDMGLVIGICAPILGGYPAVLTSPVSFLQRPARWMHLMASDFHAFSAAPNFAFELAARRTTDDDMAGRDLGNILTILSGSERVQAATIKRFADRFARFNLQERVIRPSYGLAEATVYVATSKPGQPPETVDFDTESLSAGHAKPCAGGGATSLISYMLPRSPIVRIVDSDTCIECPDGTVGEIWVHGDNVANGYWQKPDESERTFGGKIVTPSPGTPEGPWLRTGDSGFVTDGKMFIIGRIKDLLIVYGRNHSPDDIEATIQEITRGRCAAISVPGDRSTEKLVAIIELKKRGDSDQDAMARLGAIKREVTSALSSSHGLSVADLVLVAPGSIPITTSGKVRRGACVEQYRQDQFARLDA
# [27] = viability loss in THP-1 monocytes – THP-1 cells, cytotoxicity control for Vif-APOBEC3G degradation inhibitor project, dose response (AID 1117359); assay type: functional; details: THP-1
# Genome polyprotein = Genome polyprotein (dengue virus type 2, UniProt P29990); test: flavivirus cap methylation enzyme inhibition – biochemical, confirmation dose response, primary screen (AID 588689); assay type: functional
# Sequence of Genome polyprotein (P29990 2492-3391 limits assumed): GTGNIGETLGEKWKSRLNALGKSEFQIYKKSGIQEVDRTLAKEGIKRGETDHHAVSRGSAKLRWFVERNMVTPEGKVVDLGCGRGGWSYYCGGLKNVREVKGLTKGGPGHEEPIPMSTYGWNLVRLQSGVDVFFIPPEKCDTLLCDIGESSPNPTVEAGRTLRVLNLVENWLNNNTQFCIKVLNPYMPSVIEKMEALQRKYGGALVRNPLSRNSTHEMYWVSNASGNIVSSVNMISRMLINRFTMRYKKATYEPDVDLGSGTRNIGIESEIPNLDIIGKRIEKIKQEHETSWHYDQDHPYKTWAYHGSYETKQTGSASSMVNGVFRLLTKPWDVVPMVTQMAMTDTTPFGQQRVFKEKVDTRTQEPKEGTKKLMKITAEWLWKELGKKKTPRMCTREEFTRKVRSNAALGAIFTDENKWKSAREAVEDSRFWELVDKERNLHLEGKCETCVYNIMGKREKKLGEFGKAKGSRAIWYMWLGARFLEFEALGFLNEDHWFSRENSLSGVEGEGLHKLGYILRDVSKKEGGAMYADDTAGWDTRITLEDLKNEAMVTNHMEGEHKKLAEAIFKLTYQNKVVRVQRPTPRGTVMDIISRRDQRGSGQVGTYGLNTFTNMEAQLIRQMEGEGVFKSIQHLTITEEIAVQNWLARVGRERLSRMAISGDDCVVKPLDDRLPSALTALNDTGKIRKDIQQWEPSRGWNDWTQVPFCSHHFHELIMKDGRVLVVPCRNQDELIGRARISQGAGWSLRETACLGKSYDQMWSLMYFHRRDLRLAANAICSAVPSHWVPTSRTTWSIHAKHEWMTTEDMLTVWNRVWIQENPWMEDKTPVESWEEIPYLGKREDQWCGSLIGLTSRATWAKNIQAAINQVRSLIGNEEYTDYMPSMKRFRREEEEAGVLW
# [28] = molecular target: Glutathione-S-transferase (Schistosoma japonicum, UniProt Q26513); test: GST-antibody interaction or FRET quenching – biochemical, TR-FRET, artefact control for Vif-APOBEC3G degradation inhibitor project, dose response (AID 1117362); assay type: functional
# Sequence of Glutathione-S-transferase (Q26513 whole entry): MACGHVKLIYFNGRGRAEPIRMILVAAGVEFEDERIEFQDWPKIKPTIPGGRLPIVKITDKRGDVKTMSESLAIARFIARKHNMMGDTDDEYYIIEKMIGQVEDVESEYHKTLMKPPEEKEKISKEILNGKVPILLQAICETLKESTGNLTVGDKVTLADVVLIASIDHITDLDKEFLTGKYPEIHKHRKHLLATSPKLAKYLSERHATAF
# Phospholipase A2 = Phospholipase A2 (Homo sapiens, UniProt P04054); assay type: functional;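 note: confirmatory dose-response counterscreen on phospholipase A2, testing hits that came from an ultra-high-throughput screen for ATG4B inhibitors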
# Sequence of Phospholipase A2 (P04054 whole entry): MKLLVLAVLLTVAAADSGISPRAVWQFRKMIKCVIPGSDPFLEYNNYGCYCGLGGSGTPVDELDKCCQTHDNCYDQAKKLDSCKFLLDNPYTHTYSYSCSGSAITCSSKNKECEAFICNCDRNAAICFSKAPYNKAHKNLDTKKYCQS
# [29] = molecular target: T3, Tyrosyl-DNA phosphodiesterase 2 (Homo sapiens, UniProt O95551); test: potency against TDP2 phosphodiesterase activity – biochemical, epi absorbance, IC50, dose response (AID 743297)
# T3 sequence (O95551 whole entry): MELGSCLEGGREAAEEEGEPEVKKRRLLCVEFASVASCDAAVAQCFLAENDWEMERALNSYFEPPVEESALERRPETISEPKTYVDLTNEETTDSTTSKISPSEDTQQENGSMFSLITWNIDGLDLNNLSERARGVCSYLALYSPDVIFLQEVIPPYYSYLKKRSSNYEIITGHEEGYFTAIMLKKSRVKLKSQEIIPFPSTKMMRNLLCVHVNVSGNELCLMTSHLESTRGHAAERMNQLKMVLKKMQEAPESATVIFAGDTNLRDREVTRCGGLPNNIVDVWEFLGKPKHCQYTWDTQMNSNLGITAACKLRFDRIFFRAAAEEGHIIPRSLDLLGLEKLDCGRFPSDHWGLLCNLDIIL
# Cysteine protease ATG4B = molecular target: T4, Cysteine protease ATG4B (Homo sapiens, UniProt Q9Y4P1); assay type: functional;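 note: Fluorescence-based dose-response confirmation assay measuring inhibition of ATG4B activity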
# T4 sequence (Q9Y4P1 whole entry): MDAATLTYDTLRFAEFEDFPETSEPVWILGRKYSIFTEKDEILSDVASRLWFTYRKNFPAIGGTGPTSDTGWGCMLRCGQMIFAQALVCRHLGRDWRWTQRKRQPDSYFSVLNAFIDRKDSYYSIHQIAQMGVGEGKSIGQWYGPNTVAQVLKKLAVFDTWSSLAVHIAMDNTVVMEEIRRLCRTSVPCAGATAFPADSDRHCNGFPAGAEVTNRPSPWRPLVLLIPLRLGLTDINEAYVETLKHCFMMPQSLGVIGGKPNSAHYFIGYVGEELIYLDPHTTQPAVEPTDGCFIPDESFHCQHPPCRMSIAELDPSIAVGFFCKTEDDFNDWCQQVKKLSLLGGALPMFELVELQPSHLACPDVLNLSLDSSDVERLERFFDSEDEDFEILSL
# Vero [30] = test: viability of Vero cells under compound – cytotoxicity control for flavivirus capping enzyme inhibitors (AID 588742); assay type: functional; details: Chlorocebus sabaeus
structure (smiles),measurement,setting,value
CCN(CC)S(=O)(=O)c1ccc(OC)c(NC(=O)COc2ccc3c(C)cc(=O)oc3c2)c1,IC50,[1],2.14 µM (active)
same,IC50,[2],2.35 µM (active)
NCC(=O)Nc1ccc(-n2nc(C(F)(F)F)cc2-c2ccc3c(ccc4ccccc43)c2)cc1 [AR-12],AC50,cells [3],4.39 µM (active)
same,AC50,[4],8.29 µM (active)
same,AC50,[5],18.3 µM (active)
Nc1c2c(nc3c1CCC3)CCCC2,IC50,[6],11.7 µM (inactive)
same,IC50,cells [7],> 33.3 µM (inactive)
COc1cc2nc(-c3cccc(F)c3)cc(O)c2cc1OC,EC50,[8],5.44 µM (active)
Cc1cc(C)cc(SCc2noc(C(=O)NCCN(C)C)c2C(=O)NCCN(C)C)c1,IC50,Vero [9],26.9 µM (active)
O=c1cc(-c2cccc(O)c2)oc2c(O)c(O)ccc12,AC50,Cytochrome P450 2C19,15.8 µM (inconclusive)
Cc1cc(NO)nc(-c2ccc(Br)cc2)n1,EC50,[10],0.405 µM (active)
same,EC50,[11],22.8 µM (active)
same,IC50,[12],0.728 µM (active)
same,EC50,H4,40.2 µM (active)
CCc1cccc(N(C)C(=N)Nc2cccc3ccccc23)c1 [APTIGANEL HYDROCHLORIDE],IC50,[13],> 20 µM (inactive)
same,IC50,[14],> 20 µM (inactive)
same,IC50,[15],> 20 µM (inactive)
same,IC50,[16],> 20 µM (inactive)
same,IC50,[17],> 20 µM (inactive)
same,IC50,[18],> 20 µM (inactive)
same,IC50,[19],> 20 µM (inactive)
CCOC(=O)c1ccc2[nH]c3c(c2c1)CCCCC3=O,IC50,[20],> 93.1 µM (not active)
CCOC(=O)c1c(NC(=O)CN2CCN(C)CC2)sc(C)c1-c1ccc(C)cc1,AC50,[21],16.7 µM (active)
same,AC50,[22],1.74 µM (active)
CC(=O)CCSc1ncnc2sc(-c3ccccc3)cc12,IC50,[23],> 100 µM (active)
CN1CCN(C2=C(Cl)C(=O)c3ccccc3C2=O)CC1,AC50,[24],0.108 µM (active)
same,AC50,[25],1.03 µM (active)
same,AC50,[26],> 100 µM (inactive)
same,CC50,[27],6.22 µM (active)
same,IC50,Genome polyprotein,6.33 µM (active)
same,IC50,[28],> 100 µM (active)
same,IC50,Phospholipase A2,58.9 µM (inactive)
same,IC50,[29],0.581 µM (active)
same,IC50,Cysteine protease ATG4B,2.02 µM (active)
same,CC50,Vero [30],11.8 µM (active)
